# Data reported in patent US12201626B2, “Bifunctional compositions for the treatment of cancer” (ARMACEUTICA, INC., priority 2018, dated 2025).
# Columns and labels:
# [1] = test system: MDA-MB-231 LM2-LUC4 metastatic breast cancer cells; assay: Metastatic breast cancer tumours in mice, daily gavage; assay type: in vivo
# Protocol: Treatment began when tumors reached 150-300 mm^3 in size (i.e. Day 1).
# In the PND-treated group (n=6), all 6 mice were given 160 mg/kg from Day 1 to Day 9. PND-treated mice numbers 2, 4, and 5 received 160 mg/kg for the entire study, while PND-treated mice numbers 1, 3, and 6 had the largest tumors in the group on Day 9, and had their doses increased on Day 10 to 240 mg/kg, and again on Day 13 to 320 mg/kg. The control mice (n=6) were given placebo throughout the study. The size of each tumor was measured daily. The protocol's endpoint was when a tumor reached 1500 mm^3 in size, triggering the euthanization of the mouse. For the analysis, the level of significance was set at P<0.05.
# [2] = test system: plasmid dsDNA (pCMV-dR8.91); assay: DNA mobility-shift assay (agarose gel); assay type: binding; parameters: DNA mobility shift: unit of the concentration uncertain; settings: for DNA mobility shift: 100 ng plasmid DNA
# Protocol: Typically, an experimental compound intercalating or binding to double stranded (ds) DNA will increase the molecular mass resulting from forming complexes, decreasing its electrophoretic mobility in an agarose gel, as compared with untreated dsDNA. To explore the potential interaction between PND and dsDNA, a DNA mobility-shift assay was conducted. Each reaction mixture was of 10 μl total volume in PBS pH 7.4. Both PND (Sigma-Aldrich) and quinacrine (Sigma-Aldrich) were tested with three individual concentrations of 1 μM, 0.5 μM or 0.25 μM, respectively. To each reaction mixture, 100 ng of plasmid dsDNA (pCMV-dR8.91; Addgene, Cambridge, MA) was added and the mixture was then incubated for 30 min at 37° C. and stopped by adding 2 μl of 6× gel loading buffer and placed on ice. The potential binding interaction between both PND and quinacrine with dsDNA were analyzed by using 1% (w/v) agarose-gel electrophoresis dissolved in TAE buffer (0.04 M Tris base, 0.04 M acetate and 0.001 M EDTA) pH 8.0. To stain the dsDNA complexes, Ethidium bromide was added to the agarose gel throughout the electrophoresis process at a concentration of 0.5 μg/ml. DNA migration was visualized by utilizing a gel documentation system and pictures were captured by using a UV-light transilluminator (Alpha Innotech, San Leandro, CA). The well-known DNA intercalator fluorescent compound, propidium iodide (PI), was included as positive controls at 1 μg per reaction. As a control, untreated plasmid DNA was included to determine its normal electrophoretic mobility in the gel.
# [3] = test system: CEM cell line; assay: Differential Nuclear Staining (DNS) cytotoxicity assay; assay type: cell-based, human
# Description: In this study, 19 human cell lines were utilized: seven breast human cancer; MDA-MB-468, MCF-7, T47D, HCC1419, HCC70, MDA-MB-231 (triple negative) and its lung metastatic (LM) derivative MDA-MB-231 LM2; four human leukemia/lymphoma cells, HL-60, Ramos, Jurkat and CEM, three human ovarian cancer, Ovcar 8, Ovcar 5 and Ovcar 3, one lung cancer, one melanoma and one pancreatic cell line, A549, A375, Panc-1 respectively. Furthermore, for selectivity/comparative purposes, the cell lines from the non-cancerous origin, MCF-10A, HS-27 were also included. […] The adherent cells, growing in the logarithmic growth phase at a 60-75% confluence, were detached by utilizing a HyQtase enzyme (Thermo Fisher Scientific Inc.), counted and seeded in 96-well plates at 10,000 cells density in 100 μL of culture medium per well. […]
# To analyze the potential cytotoxic activity of PND, the Differential Nuclear Staining (DNS) assay, which was validated for high-throughput screening (HTS) using live-cell bio-imaging was utilized. […] Montages of 2 by 2 images were captured directly from each individual well of the culture plates by using a multi-well plate reader IN Cell 2000 analyzer, an HTS and high-content analysis (HCA) system (GE Healthcare Life Sciences, Pittsburgh, PA). […] Each experimental data point, as well as controls, were assessed in triplicates. […]
smiles,measurement,setting,value
"COC1=CC=C2Nc3cc(Cl)ccc3C(N=C3C=C(CN4CCCC4)C(=O)C(CN4CCCC4)=C3)=C2N1 [PND, 4-[(7-chloro-2-methoxy-1,5-dihydrobenzo[b][1,5]naphthyridin-10-yl)imino]-2,6-bis(pyrrolidin-1-ylmethyl)cyclohexa-2,5-dien-1-one]",average tumor size,"[1]; 160 mg/kg daily gavage, Day 1 to 9, control 750 mm^3, P 0.01",430 mm^3
same,"PND accumulation on dissection (stomach, intestines, liver)",[1]; 6 PND-treated mice dissected,no sign of PND accumulation
same,adverse events,[1]; 160-320 mg/kg daily gavage,no reports of negative adverse events except discomfort in walking after Day 15
same,length of survival versus placebo,[1]; 160-320 mg/kg daily gavage,significant difference in lengths of survival favoring the PND-treated group
same,"weight, eating, grooming",[1]; 160-320 mg/kg daily gavage,"no weight loss, no eating disorders, or grooming issues"
same,tumor size versus placebo,"[1]; Day 1 to 15, P 0.0001",tumors had grown larger in the placebo group than in the PND-treated group
same,pigmentation at about Day 20,[1]; all 6 PND-treated mice,"yellowing in the eyes, skin, ears, and paws"
same,DNA mobility shift,[2]; 0.5 and 0.25 mM,clear reduction in mobility
same,DNA mobility shift,"[2]; 1 (unit uncertain), 30 min 37° C.",marked reduction of migration
same,DNA degradation,[2]; fragments smaller than free supercoiled DNA,did not result in DNA degradation
same,selectivity (SCI),[3],poor selectivity
